Test: Phase I clinical trial: treatment-emergent adverse events (patients, n (%)), dose limiting toxicity, MTD
Format: in vivo
[1] = Table 8: Total QD Dosing (N = 25)
[2] = Table 8: Total QDx3d QW (N = 14)

Procedure: Safety, maximum tolerated dose (MTD), pharmacokinetics (PK) and preliminary antitumor activity were evaluated.
Pharmacodynamic (PD) endpoints were evaluated in surrogate (peripheral blood cells [PBCs], skin) and tumor tissues for the phosphorylation of TORC1-dependent markers (4EBP1/S6), and TORC2-dependent markers (AKT/PRAS40).

## CC(C)n1nc(-c2ccc3oc(N)nc3c2)c2c(N)ncnc21 [compound A]
40 mg QW, 20 mg QDx3d QW and 13 mg QDxSd QW cohorts
  Dose limiting toxicities: Grade (G) 3 asthenia and G3 mucositis
3 intermittent dosing regimens
  adverse events (AEs) reported: reversibility: reversible
3 regimens
  lymphopenia, only reported Grade 3 or higher AE possibly related: 6%
QD Dosing (N = 25)
  Grade 3 or greater TEAE: Abdominal pain upper: 1 (4%)
  Grade 3 or greater TEAE: Anaemia: 1 (4%)
  Grade 3 or greater TEAE: Aspartate aminotransferase increased: 0 (0%)
  Grade 3 or greater TEAE: Asthenia: 0 (0%)
  Grade 3 or greater TEAE: Catheter related infection: 1 (4%)
  Grade 3 or greater TEAE: Cellulitis: 1 (4%)
  Grade 3 or greater TEAE: Diarrhoea: 1 (4%)
  Grade 3 or greater TEAE: Disease progression: 0 (0%)
  Grade 3 or greater TEAE: Enterocutaneous fistula: 1 (4%)
  Grade 3 or greater TEAE: Gamma-glutamyltransferase increased: 0 (0%)
  Grade 3 or greater TEAE: Gastroenteritis: 0 (0%)
  Grade 3 or greater TEAE: Hyperglycaemia: 4 (16%)
  Grade 3 or greater TEAE: Hypokalaemia: 2 (8%)
  Grade 3 or greater TEAE: Hyponatraemia: 2 (8%)
  Grade 3 or greater TEAE: Lymphopenia: 2 (8%)
  Grade 3 or greater TEAE: Pancreatitis acute: 1 (4%)
  Grade 3 or greater TEAE: Pleural effusion: 1 (4%)
  Grade 3 or greater TEAE: Pruritus: 2 (8%)
  Grade 3 or greater TEAE: Rash: 7 (28%)
  Grade 3 or greater TEAE: Rash macular: 0 (0%)
  Grade 3 or greater TEAE: Somnolence: 1 (4%)
  Grade 3 or greater TEAE: Thrombocytopenia: 2 (8%)
  Grade 3 or greater TEAE: Urinary tract infection: 0 (0%)
  Patients Reporting at Least One Grade 3 or Greater TEAE: 15 (60%)
QDx3d QW (N = 14)
  Grade 3 or greater TEAE: Abdominal pain upper: 0 (0%)
  Grade 3 or greater TEAE: Anaemia: 0 (0%)
  Grade 3 or greater TEAE: Aspartate aminotransferase increased: 0 (0%)
  Grade 3 or greater TEAE: Asthenia: 1 (7%)
  Grade 3 or greater TEAE: Catheter related infection: 0 (0%)
  Grade 3 or greater TEAE: Cellulitis: 0 (0%)
  Grade 3 or greater TEAE: Diarrhoea: 1 (7%)
  Grade 3 or greater TEAE: Disease progression: 1 (7%)
  Grade 3 or greater TEAE: Enterocutaneous fistula: 0 (0%)
  Grade 3 or greater TEAE: Gamma-glutamyltransferase increased: 1 (7%)
  Grade 3 or greater TEAE: Gastroenteritis: 1 (7%)
  Grade 3 or greater TEAE: Hyperglycaemia: 1 (7%)
  Grade 3 or greater TEAE: Hypokalaemia: 0 (0%)
  Grade 3 or greater TEAE: Hyponatraemia: 0 (0%)
  Grade 3 or greater TEAE: Lymphopenia: 1 (7%)
  Grade 3 or greater TEAE: Pancreatitis acute: 0 (0%)
  Grade 3 or greater TEAE: Pleural effusion: 0 (0%)
  Grade 3 or greater TEAE: Pruritus: 0 (0%)
  Grade 3 or greater TEAE: Rash: 0 (0%)
  Grade 3 or greater TEAE: Rash macular: 1 (7%)
  Grade 3 or greater TEAE: Somnolence: 0 (0%)
  Grade 3 or greater TEAE: Thrombocytopenia: 0 (0%)
  Grade 3 or greater TEAE: Urinary tract infection: 1 (7%)
  Patients Reporting at Least One Grade 3 or Greater TEAE: 7 (50%)
QDx5d QW (N = 6)
  Grade 3 or greater TEAE: Abdominal pain upper: 0 (0%)
  Grade 3 or greater TEAE: Anaemia: 0 (0%)
  Grade 3 or greater TEAE: Aspartate aminotransferase increased: 0 (0%)
  Grade 3 or greater TEAE: Asthenia: 0 (0%)
  Grade 3 or greater TEAE: Catheter related infection: 0 (0%)
  Grade 3 or greater TEAE: Cellulitis: 0 (0%)
  Grade 3 or greater TEAE: Diarrhoea: 0 (0%)
  Grade 3 or greater TEAE: Disease progression: 0 (0%)
  Grade 3 or greater TEAE: Enterocutaneous fistula: 0 (0%)
  Grade 3 or greater TEAE: Gamma-glutamyltransferase increased: 0 (0%)
  Grade 3 or greater TEAE: Gastroenteritis: 0 (0%)
  Grade 3 or greater TEAE: Hyperglycaemia: 0 (0%)
  Grade 3 or greater TEAE: Hypokalaemia: 0 (0%)
  Grade 3 or greater TEAE: Hyponatraemia: 0 (0%)
  Grade 3 or greater TEAE: Lymphopenia: 0 (0%)
  Grade 3 or greater TEAE: Pancreatitis acute: 0 (0%)
  Grade 3 or greater TEAE: Pleural effusion: 0 (0%)
  Grade 3 or greater TEAE: Pruritus: 0 (0%)
  Grade 3 or greater TEAE: Rash: 0 (0%)
  Grade 3 or greater TEAE: Rash macular: 0 (0%)
  Grade 3 or greater TEAE: Somnolence: 0 (0%)
  Grade 3 or greater TEAE: Thrombocytopenia: 0 (0%)
  Grade 3 or greater TEAE: Urinary tract infection: 0 (0%)
  Patients Reporting at Least One Grade 3 or Greater TEAE: 0 (0%)
QW Dosing (N = 15)
  Grade 3 or greater TEAE: Abdominal pain upper: 0 (0%)
  Grade 3 or greater TEAE: Anaemia: 0 (0%)
  Grade 3 or greater TEAE: Aspartate aminotransferase increased: 1 (7%)
  Grade 3 or greater TEAE: Asthenia: 0 (0%)
  Grade 3 or greater TEAE: Catheter related infection: 0 (0%)
  Grade 3 or greater TEAE: Cellulitis: 0 (0%)
  Grade 3 or greater TEAE: Diarrhoea: 1 (7%)
  Grade 3 or greater TEAE: Disease progression: 0 (0%)
  Grade 3 or greater TEAE: Enterocutaneous fistula: 0 (0%)
  Grade 3 or greater TEAE: Gamma-glutamyltransferase increased: 1 (7%)
  Grade 3 or greater TEAE: Gastroenteritis: 0 (0%)
  Grade 3 or greater TEAE: Hyperglycaemia: 0 (0%)
  Grade 3 or greater TEAE: Hypokalaemia: 0 (0%)
  Grade 3 or greater TEAE: Hyponatraemia: 0 (0%)
  Grade 3 or greater TEAE: Lymphopenia: 1 (7%)
  Grade 3 or greater TEAE: Pancreatitis acute: 0 (0%)
  Grade 3 or greater TEAE: Pleural effusion: 0 (0%)
  Grade 3 or greater TEAE: Pruritus: 0 (0%)
  Grade 3 or greater TEAE: Rash: 0 (0%)
  Grade 3 or greater TEAE: Rash macular: 0 (0%)
  Grade 3 or greater TEAE: Somnolence: 0 (0%)
  Grade 3 or greater TEAE: Thrombocytopenia: 0 (0%)
  Grade 3 or greater TEAE: Urinary tract infection: 0 (0%)
  Patients Reporting at Least One Grade 3 or Greater TEAE: 3 (20%)
Table 8: Total (N = 60)
  Catheter site inflammation: 1 (2%)
  Catheter site pain: 1 (2%)
  Coagulopathy: 1 (2%)
  Confusional state: 1 (2%)
  Cough: 1 (2%)
  DIARRHEA: 1 (2%)
  Dizziness: 1 (2%)
  Dyspnoea exertional: 1 (2%)
  Eye infection: 1 (2%)
  Fatigue: 1 (2%)
  Gastritis: 1 (2%)
  Gravitational oedema: 1 (2%)
  Headache: 1 (2%)
  Hyperbilirubinaemia: 1 (2%)
  Hypertransaminasaemia: 1 (2%)
  Hypertriglyceridaemia: 1 (2%)
  Hypocalcaemia: 1 (2%)
  Hypomagnesaemia: 1 (2%)
  Hypotension: 1 (2%)
  Insomnia: 1 (2%)
  Low fever: 1 (2%)
  Malaise: 1 (2%)
  Nausea: 1 (2%)
  Oral discomfort: 1 (2%)
  Orthostatic hypotension: 1 (2%)
  Palmar-plantar erythrodysaesthesia syndrome: 1 (2%)
  Panniculitis: 1 (2%)
  Platelet count decreased: 1 (2%)
  Polyuria: 1 (2%)
  Pyrexia: 1 (2%)
  Rash: 1 (2%)
  Rash macular: 1 (2%)
  Skin discolouration: 1 (2%)
  Skin exfoliation: 1 (2%)
  Urinary tract infection: 1 (2%)
  Urine tract infection: 1 (2%)
  Vomiting: 1 (2%)
  WEAKNESS: 1 (2%)
  Weight decreased: 1 (2%)
[1]
  Catheter site inflammation: 0 (0%)
  Catheter site pain: 0 (0%)
  Coagulopathy: 1 (4%)
  Confusional state: 1 (4%)
  Cough: 1 (4%)
  DIARRHEA: 0 (0%)
  Dizziness: 1 (4%)
  Dyspnoea exertional: 1 (4%)
  Eye infection: 1 (4%)
  Fatigue: 0 (0%)
  Gastritis: 1 (4%)
  Gravitational oedema: 1 (4%)
  Headache: 0 (0%)
  Hyperbilirubinaemia: 0 (0%)
  Hypertransaminasaemia: 0 (0%)
  Hypertriglyceridaemia: 0 (0%)
  Hypocalcaemia: 1 (4%)
  Hypomagnesaemia: 0 (0%)
  Hypotension: 0 (0%)
  Insomnia: 1 (4%)
  Low fever: 0 (0%)
  Malaise: 0 (0%)
  Nausea: 0 (0%)
  Oral discomfort: 0 (0%)
  Orthostatic hypotension: 1 (4%)
  Palmar-plantar erythrodysaesthesia syndrome: 0 (0%)
  Panniculitis: 1 (4%)
  Platelet count decreased: 0 (0%)
  Polyuria: 1 (4%)
  Pyrexia: 0 (0%)
  Rash: 0 (0%)
  Rash macular: 0 (0%)
  Skin discolouration: 1 (4%)
  Skin exfoliation: 1 (4%)
  Urinary tract infection: 0 (0%)
  Urine tract infection: 0 (0%)
  Vomiting: 0 (0%)
  WEAKNESS: 0 (0%)
  Weight decreased: 1 (4%)
[2]
  Catheter site inflammation: 1 (7%)
  Catheter site pain: 1 (7%)
  Coagulopathy: 0 (0%)
  Confusional state: 0 (0%)
  Cough: 0 (0%)
  DIARRHEA: 0 (0%)
  Dizziness: 0 (0%)
  Dyspnoea exertional: 0 (0%)
  Eye infection: 0 (0%)
  Fatigue: 1 (7%)
  Gastritis: 0 (0%)
  Gravitational oedema: 0 (0%)
  Headache: 1 (7%)
  Hyperbilirubinaemia: 1 (7%)
  Hypertransaminasaemia: 1 (7%)
  Hypertriglyceridaemia: 1 (7%)
  Hypocalcaemia: 0 (0%)
  Hypomagnesaemia: 1 (7%)
  Hypotension: 1 (7%)
  Insomnia: 0 (0%)
  Low fever: 1 (7%)
  Malaise: 0 (0%)
  Nausea: 0 (0%)
  Oral discomfort: 0 (0%)
  Orthostatic hypotension: 0 (0%)
  Palmar-plantar erythrodysaesthesia syndrome: 1 (7%)
  Panniculitis: 0 (0%)
  Platelet count decreased: 1 (7%)
  Polyuria: 0 (0%)
  Pyrexia: 1 (7%)
  Rash: 0 (0%)
  Rash macular: 1 (7%)
  Skin discolouration: 0 (0%)
  Skin exfoliation: 0 (0%)
  Urinary tract infection: 1 (7%)
  Urine tract infection: 0 (0%)
  Vomiting: 0 (0%)
  WEAKNESS: 0 (0%)
